Among the data in patent US20050096456A1, “Compounds comprising pseudo-amino acids” (priority 2002, published 2005) are solubility values, retold here.

This data set is described as follows: Solubility of the lyophilised peptide. Format: physicochemical. On the procedure:
The crude peptide was desalted via gel filtration (Sephadex G10, 0.1% TFA in water) before purification by preparative C18 Vydac) high performance liquid chromatography (HPLC) using 0.1% trifluoroacetic acid and 0.1% trifluoroacetic acid/90% acetonitrile as gradient components. After lyophilisation, the peptide was a white amorphous powder, soluble to at least 10 mg/mL in both dimethylsulfoxide and water. Fast atom bombardment spectrometry gave a main peak at 2101 amu corresponding to the molecular ion of the peptide.

SMILES strings stand for the structures. Read-outs that look alike come from different tables or passages of the source. Residues, ends and D or L forms follow the SMILES beside them. *: point of attachment. Myristoyl = CCCCCCCCCCCCCC(=O)*

Regarding `CCCCCCCCCCCCCC(=O)NCC(=O)N[C@@H](CO)C(=O)N[C@@H](CO)C(=O)N[C@@H](CCCCN)C(=O)N[C@@H](CO)C(=O)N1CCC[C@H]1C(=O)N[C@@H](CO)C(=O)N[C@@H](CCCCN)C(=O)N[C@@H](CCCCN)C(=O)N[C@@H](CC(=O)O)C(=O)N[C@@H](CC(=O)O)C(=O)N[C@@H](CCCCN)C(=O)N[C@@H](CCCCN)C(=O)N1CCC[C@H]1C(=O)NCC(=O)N[C@@H](CC(=O)O)C(=O)N[C@@H](CCCCNC(=O)[C@@H](N)CS)C(N)=O` [MSWP2278, Myristoyl-Gly-Ser-Ser-Lys-Ser-Pro-Ser-Lys-Lys-Asp-Asp-Lys-Lys-Pro-Gly-Asp-(E-amino-cysteinyl carboxamide)-Lys-NH2] (Myristoyl-GSSKSPSKKDDKKPGDK(Cys)-NH2), the solubility – broadly, the dissolved amount per volume that the medium holds – was at least 10000 µg/mL (in dimethylsulfoxide, read-out: solubility in dimethylsulfoxide) and at least 10000 µg/mL (in water, read-out: solubility in water).
